Legend:
HIV-1 = conditions: Method A; for pEC50 (−logEC50): MT-4 cells, HIV-infected, MTT, 50% protection; for pSI (pCC50-pEC50): selectivity index, ratio of CC50 to EC50
Procedure: An […] T4-cell line, MT-4, which was previously shown (Koyanagi et al., Int. J. Cancer, 36, 445-451, 1985) to be highly susceptible to and permissive for HIV infection, served as the target cell line. Inhibition of the HIV-induced cytopathic effect was used as the end point. The viability of both HIV- and mock-infected cells was assessed spectrophotometrically via the in situ reduction of 3-(4,5-dimethylthiazol-2-yl)-2,5-diphenyltetrazolium bromide (MTT). The 50% cytotoxic concentration (CC50 in M) was defined as the concentration of compound that reduced the absorbance of the mock-infected control sample by 50%. The percent protection achieved by the compound in HIV-infected cells was calculated by the following formula:
[formula] whereby (ODT)HIV is the optical density measured with a given concentration of the test compound in HIV-infected cells; (ODC)HIV is the optical density measured for the control untreated HIV-infected cells; (ODC)MOCK is the optical density measured for the control untreated mock-infected cells; all optical density values were determined at 540 nm. The dose achieving 50% protection according to the above formula was defined as the 50% effective concentration (EC50 in M). The ratio of CC50 to EC50 was defined as the selectivity index (SI). Method B

mock-infected MT-4 cells = type: cell-based
Procedure: An HIV-1 transformed T4-cell line, MT-4, which was previously shown (Koyanagi et al., Int. J. Cancer, 36, 445-451, 1985) to be highly susceptible to and permissive for HIV infection, served as the target cell line. Inhibition of the HIV-induced cytopathic effect was used as the end point. The viability of both HIV- and mock-infected cells was assessed spectrophotometrically via the in situ reduction of 3-(4,5-dimethylthiazol-2-yl)-2,5-diphenyltetrazolium bromide (MTT). The 50% cytotoxic concentration (CC50 in M) was defined as the concentration of compound that reduced the absorbance of the mock-infected control sample by 50%. The percent protection achieved by the compound in HIV-infected cells was calculated by the following formula:

Cc1cc(C#N)cc(C)c1Oc1nc(Nc2ccc(C#N)cc2)nc2[nH]cnc12 [Compound 28]
pEC50 (−logEC50) (HIV-1): 9.0 M | pSI (pCC50-pEC50) (HIV-1): <−4.4 | pCC50 (−logCC50) (mock-infected MT-4 cells): <4.6

Cc1cc(C)c(Oc2nc(Nc3ccc(C#N)cc3)nc3[nH]cnc23)c(C)c1 [Compound 23]
pEC50 (−logEC50) (HIV-1): 8.2 M | pSI (pCC50-pEC50) (HIV-1): <−3.6 | pCC50 (−logCC50) (mock-infected MT-4 cells): <4.6

COc1cc(C)c(Nc2nc(Nc3ccc(C#N)cc3)nc3[nH]cnc23)c(C)c1 [Compound 25]
pEC50 (−logEC50) (HIV-1): 8.5 M | pSI (pCC50-pEC50) (HIV-1): <−4 | pCC50 (−logCC50) (mock-infected MT-4 cells): <4.5

Reference: patent US8026245B2, “HIV replication inhibiting purine derivatives” (Janssen Pharmaceutica N.V., priority 2003, dated 2011)
